The subject of experiment [1] is A375 human melanoma cells. Description: tumor cell TEM assay, A375 melanoma cells across EC (HUVEC) monolayers. It counts as cell-based. Particulars: for melanoma cell transmigration across endothelial cell monolayers, prostaglandin receptor inhibitors: HUVEC pretreated 1 hour then washed, A375 cells, inhibitor used at 10× its IC50; for melanoma cell TEM in vitro (in words): human melanoma cells across human EC monolayer. As for the experimental part:
FIG. 7. Tat-KLC1c peptide blocks tumor cell TEM. A375 human melanoma cells were allowed to transmigrate for 2 hours across EC monolayers pre-incubated (then washed extensively) with Tat-KLC1c or Tat-Scr. The 50% block in TEM is representative of at least 6 independent experiments.
FIG. 10. Platelets modestly increase melanoma cell migration through an LBRC-dependent mechanism. The tumor cell TEM assay was carried out in the presence or absence of human platelets, which were added to the tumor cells at the time of peptide addition and immediately prior to addition to the endothelial cell monolayer. Transmigration proceeded for 2 hours.
FIG. 17. […] HUVEC monolayers were pretreated with 100 nM Tat peptides or the indicated doses of PF-04418948 (EP2 inhibitor) or AAT008 (EP4 antagonist) for 1 hour then washed exten-sively before adding A375 cells. Transmigration proceeded for 2 hours.
FIG. 18. Optimal concentrations of Tat-KLC1c peptide and EP4 antagonist are not additive. Transmigration assays as in FIG. 16 with 100 μM Tat-peptides, 100 nM AAT-008, or both. Mean±S.D. of 6 replicates for each condition. * p<0.0004 vs. Scr; NS vs each other.
(§1) Tumor cells that transmigrate using the LBRC do so without destroying the endothelial cell monolayer. […] The Tat-KLC1c peptide has no effect on the ability of tumor cells to move per se (FIG. 8), nor on tumor cell viability or growth (FIG. 9).

Another experiment relates to A375M melanoma cells. Description: A375M transendothelial migration assay. The experiment is classed as cell-based, human. Particulars: for lowest concentration with significant effects on tumor cell transmigration / melanoma / tumor cell transmigration with free radical scavengers and anti-oxidants (in words): A375M; for melanoma / tumor cell transmigration with free radical scavengers and anti-oxidants (in words): indicated concentrations, vs. Scr; for inhibition of melanoma cell TEM compared with Tat-KLC1c peptide: at 10 mM, vs optimal concentration of Tat-KLC1c peptide. As to the method: (§2) FIG. 16. […] Data are mean±SD of 6 replicates. *p<0.005 vs. Scr.
FIG. 19. […] A375M transendothelial migration assays were carried out in the presence of Tat-peptides or the indicated concentrations of Trolox or N-acetylcysteine. Data are mean±SD of ≥3 replicates for each condition. *p<0.01 for all inhibitors vs. Scr.

Experiment [2] concerns B16F10 melanoma cells. Nature of the experiment: growth of B16F10 melanoma cells in culture over two weeks. It counts as cell-based, mouse. Particulars: 100 nM peptide, two-week period. As for the experimental part:
FIG. 9. […] Melanoma cells were plated at a density of 1×10^5/ml on 80 mm plates with 100 nM Tat-Scr or Tat-KLC1c. Cells were trypsinized and counted on the indicated days, diluted and 4×10^6 viable cells re-plated in fresh peptide. Total cells in the culture are shown.

In experiment [3] the test system is B16F10 melanoma cells. Nature of the experiment: lung metastatic colony formation after tail vein injection of B16F10 cells. It counts as in vivo, mouse. As to the method: Age- and sex-matched C57Bl/6 mice were injected with Tat-Scr (Scr) or Tat-KLC1c (KLC1c) 1 hr before and 18 hr after injection of 10^6 B16F10 melanoma cells via tail vein. 14 days later lungs were inflated with formalin, and metastases counted. (A) Representative gross photos of lungs from mice that received Tat-Scr (top) and Tat-KLC1c (bottom). Arrows point to some of the metastases. (B) Graphical representation of results. Dots are values for individual mice. (TNTC)=too numerous to count. Lines show mean±S.D., p=0.00204 by ANOVA not including the TNTC data.
C57Bl/6 mice received KLC1c or scrambled peptide 1 hour prior to receiving carboxyfluorescein (CFSE)-labeled B16F10 melanoma cells via tail vein. They were sacrificed six hours later so that data would reflect the effects on extravasation per se rather than survival or growth (Ref. B10; herein incorporated by reference in its entirety). Immediately prior to sacrifice a fluorescent anti-PECAM antibody was injected i.v. to stain vasculature. […] In a separate experiment, age- and sex-matched C57Bl/6 mice syngeneic to the tumor were randomized to receive Tat-Scr or Tat-KLC1c parenterally at a concentration calculated to achieve 0.1 μM in vivo 1 h. before and 18 h. after receiving 1×10^6 syngeneic B16F10 melanoma cells in 100 μl via tail vein. […]

The next experiment has as its system PMN. Description: croton oil acute dermatitis of ear skin, PMN transmigration. The experiment is classed as in vivo, mouse. Particulars: i.v. to achieve 0.1 μM in blood, one hour before croton oil; ear skin examined six hours later. As to the method: FIG. 5. TAT-KLC1c blocks TEM in vivo. Mice received TAT-Scr or TAT-KLC1c i.v. at a concentration to achieve 0.1 μM in blood. One hour later, croton oil was applied to mouse ear skin to induce acute dermatitis. Six hours later mice were sacrificed and ear skin examined in whole mount by confocal microscopy. Representative images are shown. In mice receiving Tat-Scr, a mean of 70% of PMN exited the vessels, while in mice receiving Tat-KLC1c, transmigration was decreased to 12%.

Experiment [4] has as its system B16F10 melanoma cells. Nature of the experiment: melanoma cell extravasation in lung in vivo after tail vein injection. The settings on record: for visualized tumor cells that had transmigrated: C57Bl/6 mice, peptide 1 hour prior to CFSE-labeled B16F10 via tail vein, sacrificed six hours later. On the set-up: species or system mouse. As to the method:
FIG. 11. Visualizing melanoma cell extravasation in vivo. Single XY plane from confocal image of CFSE-labeled B16F10 cells in Tat-Scr treated mouse lung 6 hr. after i.v. injection of 10^6 tumor cells. Two tumor cells (arrows) have migrated out of vasculature while another one (arrowhead) remains inside the vessel.
FIG. 12. […] Quantification of block by Tat-KLC1c (Mean±S.D) * p<0.01.
C57Bl/6 mice received KLC1c or scrambled peptide 1 hour prior to receiving carboxyfluorescein (CFSE)-labeled B16F10 melanoma cells via tail vein. They were sacrificed six hours later so that data would reflect the effects on extravasation per se rather than survival or growth (Ref. B10; herein incorporated by reference in its entirety). Immediately prior to sacrifice a fluorescent anti-PECAM antibody was injected i.v. to stain vasculature. Lungs were inflated with 4% paraformaldehyde (PFA) and fixed overnight in PFA, then cryopreserved in sucrose. 100 μm thick frozen sections were cut and examined by spinning disc confocal microscopy with images taken every 1 μm of specimen depth. 30% of visualized tumor cells had transmigrated in the mice receiving scrambled peptide, whereas only ˜9% had transmigrated in mice receiving Tat-KLC1c peptide—a 70% reduction (FIGS. 11,12). […] In a separate experiment, age- and sex-matched C57Bl/6 mice syngeneic to the tumor were randomized to receive Tat-Scr or Tat-KLC1c parenterally at a concentration calculated to achieve 0.1 μM in vivo 1 h. before and 18 h. after receiving 1×10^6 syngeneic B16F10 melanoma cells in 100 μl via tail vein. Lung metastases were enumerated 14 days later under a dissecting microscope. The Tat-KLC1c group had over 90% fewer (FIG. 13, p=0.00204). […] Even though Tat-KLC1c blocks about ⅓ (in vitro) to ⅔ (in vivo) of melanoma extravasation events, the number of metastatic colonies that grow out are disproportionately lower.

Experiment [5] relates to Human umbilical vein endothelial cells. Nature of the experiment: in vitro transendothelial migration (TEM) of human monocytes across endothelial cell monolayers. It counts as cell-based. Particulars: endothelial cells incubated 30 minutes with 0.01 μM or 0.1 μM peptide, washed, one hour with human monocytes; compared to untreated. As to the method: FIG. 3. Blocking Kinesin Light Chain 1c function via TAT-KLC1c peptide inhibits transmigration. Human umbilical vein endothelial cells. Endothelial cells were incubated for 30 minutes with either 0 μM (untreated), 0.01 μM, or 0.1 μM TAT-KLC1c peptide (or scrambled TAT-peptide) at 37° C., then washed prior to a one hour incubation with human monocytes. The cells were then washed, fixed, and the percentage of cells transmigrated (% TEM) was quantified. […] Data shown are mean±SEM for 3 experiments. * p<0.01 compared to untreated.
as §2, §1

The subject of experiment [6] is B16F10 melanoma cells. Nature of the experiment: Transwell filter migration of tumor cells toward serum-containing medium (B16F10). The experiment is classed as cell-based, mouse. Particulars: 100 nM peptide, 12 hours, 8 μM pore size Transwell. As for the experimental part:
(§3) FIG. 8. […] 1×10^4 A375 human melanoma cells or 1×10^4 B16F10 melanoma cells were resuspended in serum-free medium and placed in the upper chamber of Transwell filters ([…]) and allowed to migrate in response to serum-containing medium in the bottom chamber in the presence of 100 nM Tat-Scr, Tat-KLC1c or no additives. The total number of tumor cells in the bottom well 12 hours later was enumerated. Data are mean±S.D. for four replicates of each sample.

In experiment [7] the test system is A375 human melanoma cells. Description: Transwell filter migration of tumor cells toward serum-containing medium (A375). It counts as cell-based. The settings on record: 100 nM peptide, 12 hours, 8 μM pore size Transwell. As for the experimental part: as §3
For the next experiment, the system named is neutrophils. Nature of the experiment: intravital confocal microscopy of neutrophil transmigration in IL-1β-inflamed cremaster muscle. It counts as in vivo. Particulars: anesthetized mouse; for neutrophil extravasation (cumulative transmigration): postcapillary venules, response to IL-1β, after injection of peptide. An excerpt: FIG. 4. TAT-KLC1c blocks TEM in vivo. In the inflamed cremaster muscle of an anesthetized mouse, fluorescent neutrophils were observed by intravital spinning disc confocal microscopy to transmigrate steadily from postcapillary venules in response to IL-1β.

“Also recorded” adds a separate entry of the source. A value given as a limit tells only on which side of the number the result lay.

Take `C[C@H](NC(=O)c1cc(Cl)cnc1Oc1cccc(F)c1)c1ccc(C(=O)O)cc1` [AAT-008, reference compound]: the “melanoma cell transmigration across endothelial cell monolayers, prostaglandin receptor inhibitors” value in [1] (2 hours) is listed as “block melanoma cell transmigration”; in experiment [1] (2 hours, listed as AAT008) it was “blocks melanoma transmigration”. For the same compound, in experiment [1] (vs Tat-KLC1c at its optimal concentration), the “block to melanoma cell transmigration compared with Tat-KLC1c” value is listed as “as effective as using Tat-KLC1c at its optimal concentration”.

In the case of `CC(=O)N[C@@H](CS)C(=O)O` [N-acetylcysteine], in the experiment with A375M melanoma cells, the “lowest concentration with significant effects on tumor cell transmigration” value is 100 µM; the “melanoma / tumor cell transmigration with free radical scavengers and anti-oxidants (in words)” value was “reduces tumor cell transmigration in a dose-dependent manner; also recorded: inhibit melanoma transmigration”; the “inhibition of melanoma cell TEM compared with Tat-KLC1c peptide” value is reported as “as effectively as the optimal concentration of Tat-KLC1c peptide”.

Take `Cc1c(C)c2c(c(C)c1O)CCC(C)(C(=O)O)O2` (stereo not shown) [Trolox, 6-hydroxy-2,5,7,8-tetramethylchroman-2-carboxylic acid]: in the experiment with A375M melanoma cells, the “lowest concentration with significant effects on tumor cell transmigration” value came to 100 µM; the “melanoma / tumor cell transmigration with free radical scavengers and anti-oxidants (in words)” value is given as “reduces tumor cell transmigration in a dose-dependent manner; also recorded: inhibit melanoma transmigration”; the “inhibition of melanoma cell TEM compared with Tat-KLC1c peptide” value is reported as “as effectively as the optimal concentration of Tat-KLC1c peptide”.

With “Tat-KLC1c: 11-amino acid basic region from HIV Tat protein, glycine tripeptide linker, C-terminal decapeptide of KLC1c (MRKMKLGLVN); SEQ ID NO: 8 (YGRKKRRQRRRGGGMRKMKLGLVN)”, the “block in TEM” value in experiment [1] (EC monolayers pre-incubated with peptide then washed, 2 hours, vs Tat-Scr, representative of at least 6 experiments) is recorded as 50%. Moreover, the “reduction of tumor cell TEM” value in experiment [1] (FIG. 10 experiment, without platelets, 2 hours, vs. scr) was 33%. Moreover, the “melanoma cell TEM in vitro (in words)” value in experiment [1] is “significantly blocks”. Besides, the “additional TEM in the presence of platelets” value in [1] (human platelets added to tumor cells, 2 hours) is “blocked; also recorded: down to the same level”. Also, the “melanoma extravasation events blocked (in vitro)” value in experiment [1] (in vitro) is reported as “about ⅓”. For the same compound, the “tumor cell viability or growth (total cells in the culture)” value in the experiment on B16F10 melanoma cells [2] is “no effect; also recorded: does not affect growth”. For the same compound, in the experiment with B16F10 melanoma cells [3] (0.1 μM in vivo, 1 h before and 18 h after 1×10^6 B16F10 cells via tail vein, 14 days later), the “fewer lung metastases than Tat-Scr group” value was “over 90%”. For the same compound, the “metastatic colony formation (in words)” value with B16F10 melanoma cells [3] (C57Bl/6 mice, B16F10, 14 days) was “significantly blocked the establishment of metastatic colonies; also recorded: prevents metastatic colony formation”. The “mean PMN exited the vessels (transmigration)” value in the experiment with PMN was 12%. For the same compound, the “visualized tumor cells that had transmigrated” value in the experiment with B16F10 melanoma cells [4] (lung) was around 9%. For the same compound, the “melanoma extravasation (in words)” value in the experiment with B16F10 melanoma cells [4] (FIG. 12 quantification) was “blocks melanoma extravasation”. The “reduction of transmigrated tumor cells” value with B16F10 melanoma cells [4] (Tat-KLC1c vs scrambled peptide, six hours, lung) stood at 70%. Also, in the experiment with B16F10 melanoma cells [4] (in vivo), the “melanoma extravasation events blocked (in vivo)” value is given as “⅔”. For the same compound, the “percentage of cells transmigrated (% TEM)” value in experiment [5] is listed as “significantly decreased TEM”. The “tumor cell migration, total number of tumor cells in the bottom well” value (with B16F10 melanoma cells [6]; in [7]) was “no direct effect” throughout. The “time after injection until cumulative transmigration began to plateau” value in the experiment with neutrophils (IL-1β-inflamed cremaster) is at most 10 min. Further, the “neutrophil extravasation (cumulative transmigration)” value in the experiment on neutrophils is given as “markedly inhibited”.

Take “Tat-Scr: negative control peptide contains the same ten amino acids in a random order (scrambled, Scr); SEQ ID NO: 9 (YGRKKRRQRRRGGGGKLNKMVMLR) [reference compound]”: the “melanoma cell TEM in vitro (in words)” value in [1] is “no effect”. Further, the “mean PMN exited the vessels (transmigration)” value in the experiment on PMN was 70%. Besides, in the experiment with B16F10 melanoma cells [4] (lung), the “visualized tumor cells that had transmigrated” value is listed as 30%. In addition, in experiment [5], the “percentage of cells transmigrated (% TEM)” value was “not”. Moreover, the “tumor cell migration, total number of tumor cells in the bottom well” value (in the experiment with B16F10 melanoma cells [6]; in [7]) was “no significant differences” throughout. The “neutrophil extravasation (cumulative transmigration)” value in the experiment on neutrophils is reported as “no effect”.
